# Measured values from PubChem BioAssay (NCI).
#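 These data come from cells grown in 96-well plates and exposed to compound for 48 hours at five concentrations. GI50 is the concentration that inhibits growth by half. The concentration for full growth arrest is given as TGI.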
# Columns and labels:
# Assay in all cases: DTP human tumour cell line panel, 48 h
# 786-0 renal = tested on: 786-0 renal
# A498 renal = tested on: A498 renal
# A549 NSCLC = tested on: A549 NSCLC
# ACHN renal = tested on: ACHN renal
# BT-549 breast = tested on: BT-549 breast
# CAKI-1 renal = tested on: CAKI-1 renal
# CCRF-CEM leukemia = tested on: CCRF-CEM leukemia
# COLO 205 colon = tested on: COLO 205 colon
# DU-145 prostate = tested on: DU-145 prostate
# EKVX NSCLC = tested on: EKVX NSCLC
# HCC-2998 colon = tested on: HCC-2998 colon
# HCT-116 colon = tested on: HCT-116 colon
# HCT-15 colon = tested on: HCT-15 colon
# HL-60(TB) leukemia = tested on: HL-60(TB) leukemia
# HOP-62 NSCLC = tested on: HOP-62 NSCLC
# HS 578T breast = tested on: HS 578T breast
# HT29 colon = tested on: HT29 colon
# IGROV1 ovarian = tested on: IGROV1 ovarian
# K-562 leukemia = tested on: K-562 leukemia
# KM12 colon = tested on: KM12 colon
# LOX IMVI melanoma = tested on: LOX IMVI melanoma
# M14 melanoma = tested on: M14 melanoma
# MALME-3M melanoma = tested on: MALME-3M melanoma
# MCF7 breast = tested on: MCF7 breast
# MDA-MB-231 breast = tested on: MDA-MB-231 breast
# MDA-MB-435 = tested on: MDA-MB-435
# MOLT-4 leukemia = tested on: MOLT-4 leukemia
# NCI-H226 lung = tested on: NCI-H226 lung
# NCI-H23 lung = tested on: NCI-H23 lung
# NCI-H460 lung = tested on: NCI-H460 lung
# NCI-H522 lung = tested on: NCI-H522 lung
# NCI/ADR-RES ovarian = tested on: NCI/ADR-RES ovarian
# OVCAR-3 ovarian = tested on: OVCAR-3 ovarian
# OVCAR-4 ovarian = tested on: OVCAR-4 ovarian
# OVCAR-5 ovarian = tested on: OVCAR-5 ovarian
# OVCAR-8 ovarian = tested on: OVCAR-8 ovarian
# PC-3 prostate = tested on: PC-3 prostate
# RPMI-8226 leukemia = tested on: RPMI-8226 leukemia
# RXF 393 renal = tested on: RXF 393 renal
# SF-268 CNS = tested on: SF-268 CNS
# SF-295 CNS = tested on: SF-295 CNS
# SF-539 CNS = tested on: SF-539 CNS
# SK-MEL-2 melanoma = tested on: SK-MEL-2 melanoma
# SK-MEL-28 melanoma = tested on: SK-MEL-28 melanoma
# SK-MEL-5 melanoma = tested on: SK-MEL-5 melanoma
# SK-OV-3 ovarian = tested on: SK-OV-3 ovarian
# SN12C renal = tested on: SN12C renal
# SNB-19 CNS = tested on: SNB-19 CNS
# SNB-75 CNS = tested on: SNB-75 CNS
# SR leukemia = tested on: SR leukemia
# SW-620 colon = tested on: SW-620 colon
# T-47D breast = tested on: T-47D breast
# TK-10 renal = tested on: TK-10 renal
# U251 CNS = tested on: U251 CNS
# UACC-257 melanoma = tested on: UACC-257 melanoma
# UACC-62 melanoma = tested on: UACC-62 melanoma
# UO-31 renal = tested on: UO-31 renal
structure (smiles),measurement,setting,value
O=C1CSC(N2CCN(c3cccc(Cl)c3)CC2)=N1,GI50,786-0 renal,> 100 µM
same,TGI,786-0 renal,> 100 µM
same,GI50,A498 renal,> 100 µM
same,TGI,A498 renal,> 100 µM
same,GI50,A549 NSCLC,> 100 µM
same,TGI,A549 NSCLC,> 100 µM
same,GI50,ACHN renal,> 100 µM
same,TGI,ACHN renal,> 100 µM
same,GI50,BT-549 breast,> 100 µM
same,TGI,BT-549 breast,> 100 µM
same,GI50,CAKI-1 renal,> 100 µM
same,TGI,CAKI-1 renal,> 100 µM
same,GI50,CCRF-CEM leukemia,> 100 µM
same,TGI,CCRF-CEM leukemia,> 100 µM
same,GI50,COLO 205 colon,> 100 µM
same,TGI,COLO 205 colon,> 100 µM
same,GI50,DU-145 prostate,> 100 µM
same,TGI,DU-145 prostate,> 100 µM
same,GI50,EKVX NSCLC,> 100 µM
same,TGI,EKVX NSCLC,> 100 µM
same,GI50,HCC-2998 colon,> 100 µM
same,TGI,HCC-2998 colon,> 100 µM
same,GI50,HCT-116 colon,> 100 µM
same,TGI,HCT-116 colon,> 100 µM
same,GI50,HCT-15 colon,> 100 µM
same,TGI,HCT-15 colon,> 100 µM
same,GI50,HL-60(TB) leukemia,> 100 µM
same,TGI,HL-60(TB) leukemia,> 100 µM
same,GI50,HOP-62 NSCLC,> 100 µM
same,TGI,HOP-62 NSCLC,> 100 µM
same,GI50,HS 578T breast,> 100 µM
same,TGI,HS 578T breast,> 100 µM
same,GI50,HT29 colon,46 µM
same,TGI,HT29 colon,> 100 µM
same,GI50,IGROV1 ovarian,> 100 µM
same,TGI,IGROV1 ovarian,> 100 µM
same,GI50,K-562 leukemia,> 100 µM
same,TGI,K-562 leukemia,> 100 µM
same,GI50,KM12 colon,> 100 µM
same,TGI,KM12 colon,> 100 µM
same,GI50,LOX IMVI melanoma,> 100 µM
same,TGI,LOX IMVI melanoma,> 100 µM
same,GI50,M14 melanoma,> 100 µM
same,TGI,M14 melanoma,> 100 µM
same,GI50,MALME-3M melanoma,> 100 µM
same,TGI,MALME-3M melanoma,> 100 µM
same,GI50,MCF7 breast,> 100 µM
same,TGI,MCF7 breast,> 100 µM
same,GI50,MDA-MB-231 breast,> 100 µM
same,TGI,MDA-MB-231 breast,> 100 µM
same,GI50,MDA-MB-435,> 100 µM
same,TGI,MDA-MB-435,> 100 µM
same,GI50,MOLT-4 leukemia,> 100 µM
same,TGI,MOLT-4 leukemia,> 100 µM
same,GI50,NCI-H226 lung,> 100 µM
same,TGI,NCI-H226 lung,> 100 µM
same,GI50,NCI-H23 lung,> 100 µM
same,TGI,NCI-H23 lung,> 100 µM
same,GI50,NCI-H460 lung,> 100 µM
same,TGI,NCI-H460 lung,> 100 µM
same,GI50,NCI-H522 lung,> 100 µM
same,TGI,NCI-H522 lung,> 100 µM
same,GI50,NCI/ADR-RES ovarian,> 100 µM
same,TGI,NCI/ADR-RES ovarian,> 100 µM
same,GI50,OVCAR-3 ovarian,> 100 µM
same,TGI,OVCAR-3 ovarian,> 100 µM
same,GI50,OVCAR-4 ovarian,> 100 µM
same,TGI,OVCAR-4 ovarian,> 100 µM
same,GI50,OVCAR-5 ovarian,> 100 µM
same,TGI,OVCAR-5 ovarian,> 100 µM
same,GI50,OVCAR-8 ovarian,> 100 µM
same,TGI,OVCAR-8 ovarian,> 100 µM
same,GI50,PC-3 prostate,> 100 µM
same,TGI,PC-3 prostate,> 100 µM
same,GI50,RPMI-8226 leukemia,> 100 µM
same,TGI,RPMI-8226 leukemia,> 100 µM
same,GI50,RXF 393 renal,> 100 µM
same,TGI,RXF 393 renal,> 100 µM
same,GI50,SF-268 CNS,> 100 µM
same,TGI,SF-268 CNS,> 100 µM
same,GI50,SF-295 CNS,> 100 µM
same,TGI,SF-295 CNS,> 100 µM
same,GI50,SF-539 CNS,> 100 µM
same,TGI,SF-539 CNS,> 100 µM
same,GI50,SK-MEL-2 melanoma,> 100 µM
same,TGI,SK-MEL-2 melanoma,> 100 µM
same,GI50,SK-MEL-28 melanoma,> 100 µM
same,TGI,SK-MEL-28 melanoma,> 100 µM
same,GI50,SK-MEL-5 melanoma,> 100 µM
same,TGI,SK-MEL-5 melanoma,> 100 µM
same,GI50,SK-OV-3 ovarian,> 100 µM
same,TGI,SK-OV-3 ovarian,> 100 µM
same,GI50,SN12C renal,> 100 µM
same,TGI,SN12C renal,> 100 µM
same,GI50,SNB-19 CNS,> 100 µM
same,TGI,SNB-19 CNS,> 100 µM
same,GI50,SNB-75 CNS,84.9 µM
same,TGI,SNB-75 CNS,> 100 µM
same,GI50,SR leukemia,> 100 µM
same,TGI,SR leukemia,> 100 µM
same,GI50,SW-620 colon,> 100 µM
same,TGI,SW-620 colon,> 100 µM
same,GI50,T-47D breast,> 100 µM
same,TGI,T-47D breast,> 100 µM
same,GI50,TK-10 renal,> 100 µM
same,TGI,TK-10 renal,> 100 µM
same,GI50,U251 CNS,> 100 µM
same,TGI,U251 CNS,> 100 µM
same,GI50,UACC-257 melanoma,> 100 µM
same,TGI,UACC-257 melanoma,> 100 µM
same,GI50,UACC-62 melanoma,> 100 µM
same,TGI,UACC-62 melanoma,> 100 µM
same,GI50,UO-31 renal,> 100 µM
same,TGI,UO-31 renal,> 100 µM
